Structures are written as SMILES. Where only a bound is given, the exact number is not on record here.

For orientation: melting point means the temperature of the solid-liquid transition.

On to `CCOC(=O)C=C(C)Oc1ccc(C23CC4CC(CC(C4)C2)C3)cc1`, for which the melting point fell in the range of 97 to 98 °C.

`O=C(NCC1CN(c2ccc(N3CCOCC3=O)cc2)C(=O)O1)c1ccc(Cl)s1` (centres undefined): the melting point was 227 °C.

Turning to `COc1ccc(C(=O)Nc2ccccc2)cc1NC(=S)Nc1ccc(OC)c(OC)c1`, the melting point fell in the range of 170 to 171 °C.

`CSC(=C[N+](=O)[O-])NCCCBr` displayed a melting point of 92 to 92.5 °C.

For the molecule `O=C1CCC(c2ccccc2)(c2ccccc2)C2CN(C(Cc3ccccc3)=NCc3ccc(Cl)cc3)CC12` (centres undefined), the melting point was found to be 198 °C.

With `CC1(C)CC(=O)c2c(O)cc(C=Cc3ccccc3)cc2O1`, the melting point came out at 116 °C.

`COc1cc2c(cc1Nc1ncc(Cl)c(Nc3cc(C(N)=O)ccc3OC)n1)CCN(CCS(C)(=O)=O)CC2` came in with a melting point of 232 to 243 °C.

In the case of `CC(C)[C@H](C/C=C/C[C@H](C(=O)N1C(=O)OC[C@@H]1Cc1ccccc1)C(C)C)C(=O)N1C(=O)OC[C@@H]1Cc1ccccc1`, the melting point fell in the range of 108 to 109 °C.

The molecule `CN(C)c1ccc(N=Nc2ccccc2C(=O)NCCNC(=O)OC(C)(C)C)cc1` came in with a melting point of 131 to 134 °C.

As for `Cc1oc(-c2ccccc2)nc1COc1cccc(/C=C/CO)c1`, the melting point lay within 118 to 119 °C.

Molecule `NC(=O)CCC(N)CO` (centres undefined) gave a melting point of 92 to 95 °C.

Consider `CC(C)(C)OC(=O)Nc1ccc2ccccc2c1Br`, for which the melting point was 90 to 91 °C.

Regarding `O=C(CBr)c1ccc2c(c1)CCCS2`, the melting point fell in the range of 92 to 94 °C.

Molecule `Cc1ccc(C)n1-c1cc2c(cc1C(F)(F)F)[nH]c(=O)c(=O)n2CC(=O)O` registered a melting point above 270 °C.

The molecule `Cc1cc(C)cc(CC(C)(C)NCC(O)c2cc(O)cc3c2OCC(=O)N3)c1` (centres undefined) came in with a melting point of 235 to 238 °C.

In turn, `OCc1cc(I)ccc1O` gave a melting point of 105 to 110 °C.

In the case of `Nc1ccc2ccc(Nc3ccccc3)nc2n1`, the melting point came to 250 °C.

Consider `CCCC1C(=O)N(S(C)(=O)=O)C2CCN(S(C)(=O)=O)C12` (centres undefined), for which the melting point was 205 to 208 °C.

`CS(=O)c1nnc2c3ccccc3c(-c3ccccc3)nn12` (centres undefined): the melting point lay within 215 to 217 °C.

As for `COc1cccc(N2CC(=O)N(c3ccc(S(N)(=O)=O)cc3Cl)C2)c1`, the melting point was in the range of 200 to 203 °C.

Molecule `CC(C)N(CCS(=O)(=O)c1ccc(Cl)cc1)C(=O)Oc1ccccc1` displayed a melting point of 77.5 to 79 °C.

In turn, `O=C1c2ccccc2C(=O)N1[C@@H]1C[C@H](O)[C@@H](O)[C@H]1O` (racemic) yielded a melting point of 175 to 176 °C.

In turn, `O=C(Nc1ccc2cc(CN3CCCC3)cnc2c1F)c1ccc(-c2ccc(Cl)cc2)cc1F` came in with a melting point of 208 °C.

As to `N#Cc1cnn(-c2ccc(CBr)cc2)n1`, the melting point fell in the range of 147 to 148 °C.

The molecule `CCC(CC)COC(=O)c1ccc(N)cc1` had a melting point of 52 to 53 °C.

With `Cc1c(C(=O)Nc2ccc(N3CCN(CCCO)CC3)c(C#N)c2)cnn1-c1ccc(Cl)cc1`, the melting point amounted to 213 °C.

The molecule `O=C1C(=O)N(Cc2ccc(F)nc2)c2ccc(S(=O)(=O)N3CC[C@H]3COc3ccccc3)cc21` registered a melting point of 177 to 178 °C.

For `CS(=O)(=O)Nc1ccc(N2CCN(c3cnccc3N)CC2)cc1`, the melting point was in the range of 246 to 248 °C.

As for `CC(=O)OC1CCC2(C)C(CCC3C2C(=O)CC2(C)C3CCC23OCCO3)C1` (centres undefined), the melting point fell in the range of 116 to 123 °C.

`CS(=O)(=O)c1ccc(-c2cc(C(F)(F)F)cnc2C(=O)c2ccccc2)cc1`: the melting point was 141 to 142 °C.

Regarding `N#Cc1c(N2CCCC2)nsc1N`, the melting point was determined as 198 °C.

Regarding `CC(=O)c1ccc2c(c1)S(=O)(=O)c1cc(C(C)=O)ccc1O2`, the melting point lay within 219 to 220 °C.

In turn, `CSCCC(NC=O)C(N)=O` (racemic) gave a melting point of 121 to 122 °C.

For `CCNc1ccc(NCCO)cc1[N+](=O)[O-]`, the melting point was determined as 106 °C.

For the molecule `Cc1nn(C)c2c(=O)n(C)c(=O)n(C)c12`, the melting point lay in the range of 210 to 211 °C.

As to `O=C(O)CCc1c(-c2ccccc2)noc1-c1ccccc1`, the melting point fell in the range of 152 to 153 °C.

`COc1ccc(/C(C)=C/c2ccc(C(=O)OCc3ccccc3)cc2)cc1C12CC3CC(CC(C3)C1)C2` came in with a melting point of 230 to 240 °C.

`COC(=O)c1cccc(-c2noc(C)n2)c1` returned a melting point of 81 °C.

The molecule `CCCCCc1ccc(OCC(O)CCCCCCC(=O)O)cc1` (centres undefined) yielded a melting point of 105 to 106 °C.

Regarding `CC(C)C1CNCc2cccc3[nH]c(=O)n1c23` (centres undefined), the melting point worked out at 167 °C.

For the molecule `CC(C#Cc1cc2ccccc2s1)N(O)C(N)=O` (centres undefined), the melting point was 168 to 169 °C.

Take `CC(C)(C)OC(=O)C1CCC(c2ccco2)N1C(=O)OC(C)(C)C` (mixture of isomers): the melting point is 70 °C.

Regarding `COC1C=C(C)C(=O)CC(C)(C)C1OC(=O)c1ccc(N)cc1N` (centres undefined), the melting point was in the range of 178 to 179 °C.

Consider `COc1cccc2c(CCO)c(C)oc12`, for which the melting point lay within 58 to 59 °C.

As to `Cc1ccc(CC(N)C(O)C(N)Cc2ccccc2)cc1` (centres undefined), the melting point is 126 to 128 °C.

Molecule `CCCCCCCCc1ccc(C(=O)Cc2cccc(C(=O)O)c2)cc1` showed a melting point of 103 to 110 °C.

For `CCOC(=O)c1nnc2n1-c1sc(Cl)cc1C(c1ccccc1[N+](=O)[O-])=NC2`, the melting point lay in the range of 143 to 145 °C.

The molecule `CCN(C)c1nc(-c2ccc(OC)c(OC)c2)nc2sc(C#N)c(C)c12` gave a melting point of 133 to 135 °C.

In turn, `CC(C)(O)COC(=O)N1CCN(C#N)CC1` registered a melting point of 90 to 92 °C.

`COP(=O)(OC)C(CCc1cc(C)nc2c(C#N)c(C)nn12)P(=O)(OC)OC`: the melting point is 100 to 101 °C.

Molecule `CCCCCCCCCCCCCCCCCCOC(=O)P(=O)(OC)OC` had a melting point of 41 to 42 °C.

With `O=C(O)CCCCC(=O)Oc1ccc([N+](=O)[O-])cc1`, the melting point lay within 104 to 105 °C.

With `CCOc1ccc(S(=O)(=O)N2CCN(C)CC2)cc1-c1nc2cccnc2c(=O)[nH]1`, the melting point lay in the range of 212 to 215 °C.

`COC(=O)CCc1cc(F)ccc1C(=O)CCCNC(C)=O`: the melting point was 39 to 40 °C.

With `CCOC(=O)Oc1cc(OC)cc(OC)c1C(=O)C=Cc1ccc(OC)cc1`, the melting point was 107 °C.

With `O=C(O)c1cncc(O)c1`, the melting point was above 260 °C.

Molecule `COc1ccc(CCNc2cc(-n3cccn3)nc(-c3cccs3)n2)cc1OC` had a melting point of 116 to 117 °C.

For the molecule `COC12CC(CCCO)CN(C)C1Cc1c[nH]c3cccc2c13` (centres undefined), the melting point fell in the range of 190 to 195 °C.

In turn, `O=C(Nc1ccc(-n2nc(C(F)(F)F)cc2C(F)(F)F)cc1)N1CCOCC1` returned a melting point of 185 to 186 °C.

In turn, `CC1Oc2ccc(C3=NNC(=O)CC3)cc2N(C)C1=O` (centres undefined) gave a melting point of 210 to 211 °C.

Consider `COC(C)=CC(=O)NC1CCCCCC1`, for which the melting point stood at 120 °C.

The molecule `COC1CC2(C)C(CCC3C4CC(C)=C(C(C)=O)C4(C)CC(=O)C32)CC1O` (centres undefined) came in with a melting point of 184 to 186 °C.

The molecule `C=CCOc1cc(N2C(=O)c3ccccc3C2=O)c(F)cc1Cl` had a melting point of 148 to 150 °C.

In the case of `Nc1ccc(C23CC2C(=O)N(CC2CCCCC2)C3=O)cc1` (centres undefined), the melting point was in the range of 125 to 126 °C.

Regarding `COC(=O)c1cc2ccc(SCc3ccc(OC)cc3)cc2nc1OC`, the melting point was 133 to 134 °C.

For the molecule `CN1C(=N)c2c(Cl)cccc2S1(=O)=O`, the melting point lay within 92.5 to 95 °C.

Molecule `Cc1c(C2CCC(c3ccccc3)(N(C)C)CC2)[nH]c2ccc(O)cc12` (centres undefined) yielded a melting point of 164 to 169 °C.

Take `O=c1[nH]c2cc(C(F)(F)F)ccc2n(CCc2ncc[nH]2)c1=O`: the melting point is above 250 °C.

`NCc1cc2cc(Cl)cc(-c3ccccc3)c2o1` showed a melting point above 225 °C.

`O=[N+]([O-])C(CO)(CO)c1cc(Br)cnc1Cl` showed a melting point of 162 to 163 °C.

Turning to `COC(=O)c1ccc(-c2nc(-c3ccc(OC(F)(F)F)cc3)cs2)cc1`, the melting point was in the range of 138 to 139 °C.

Molecule `CCN1CCCCC1c1ccccc1C=CC(=O)Nc1ccccc1` (centres undefined) displayed a melting point of 120 to 122 °C.

`COC1C(NC(=O)C(F)(F)F)CC(O)OC1C` (centres undefined) yielded a melting point of 185 °C.

The molecule `C#CCCc1c(C)c(OC)c(C)c(C)c1OC` returned a melting point of 54 °C.

On to `Fc1ccc(Cl)c2ncccc12`, for which the melting point fell in the range of 74 to 76 °C.

As for `CC(C)C[C@H](NC(=O)[C@H](Cc1ccccc1)NC(=O)C1CCCCC1S)C(=O)O` (some centres undefined), the melting point lay within 180 to 183 °C.

For `O=C1N(c2cc(Cl)cc(Cl)c2)C(=O)C2(Cc3ccc(Br)cc3)CCCCN12` (centres undefined), the melting point worked out at 129 °C.

On to `Cn1c(C(=O)c2ccc(F)cc2)cc2cc(Br)ccc21`, for which the melting point was 162 to 164 °C.

Take `CCc1cc(N)c(C(=O)c2ccccc2)c(C)n1`: the melting point was 200 to 202 °C.

Consider `CCOC(=O)c1c2ccc(CC(=O)NOCC(=O)N3CCCCC3)ccc-2c(C(=O)OCC)c1N`, for which the melting point lay within 153 to 155 °C.

Consider `CC(C)(CCl)C(=O)N(O)Cc1ccccc1Br`, for which the melting point was in the range of 119 to 121 °C.

Turning to `CC(CCc1ccc(Cl)cc1)(Cn1ccnc1)Sc1cccc(Cl)c1Cl` (centres undefined), the melting point is 126 to 128 °C.

The molecule `Cc1cc(C)c(C(CO)c2ccc(C(C)C)cc2)c(O)c1C` (centres undefined) showed a melting point of 101 to 102 °C.

The molecule `CCCOc1ccnc(CS(=O)c2nc3ccccc3[nH]2)c1C` (centres undefined) registered a melting point of 81 to 83 °C.

On to `Nn1ncc2c1-c1cc3ccccc3nc1CC2`, for which the melting point was 235 °C.

Take `CC(C)(C)OC(=O)N1CCc2ccc3ccn(CCO)c3c2CC1`: the melting point is 226 to 229 °C.

The molecule `Nc1nc(-c2ccc(OCC(=O)NCC3CCCCC3)cc2)cs1` returned a melting point of 145 to 147 °C.

`Cc1ncc2c(c1OCC(=O)O)COC2(C)c1ccc(Cl)cc1` (centres undefined) came in with a melting point of 184 °C.

For `Nc1nc(Oc2ccccc2)c2ncn(CCC(CO)CO)c2n1`, the melting point lay in the range of 173 to 175 °C.

`COc1ccc(N2CCOCC2)c2sc(-c3nc4ccc(C)nc4[nH]3)nc12` came in with a melting point of 200 to 210 °C.

`COCCc1nc2c(N)nc3cc(Br)ccc3c2s1` yielded a melting point of 172 to 175 °C.

As to `O=c1c2ccccc2sn1SCc1ccccc1`, the melting point lay in the range of 111 to 112 °C.

As for `COc1cc(Nc2c(C#N)cnc3cc(-c4coc(CN5CCN(C)CC5)c4)c(OC)cc23)c(Cl)cc1Cl`, the melting point was 179 to 181 °C.

On to `Cn1cc2c(=O)[nH]c(=S)[nH]c2n1`, for which the melting point turned out to be 200 °C.

These data come from a melting point compilation (Tetko et al.; mined from patent text by program, amines drawn as free bases though some values may be those of a salt).
